Measurements: patent US20060099666A1, “Analyzer for the simultaneous enzymatic detection of closely related analytes” (Medinov, Inc., priority 2002, published 2006)
Like-named read-outs stand apart in the source and are kept apart here.

Assays:
[1] = target: alcohol oxidase (Candida boidini) (Candida boidinii, UniProt Q00922); conditions: Candida boidini enzyme, electrochemistry
[2] = target: alcohol oxidase (Pichia pastoris) (Komagataella phaffii, UniProt P04842); conditions: Pichia pastoris enzyme
Description: (§1) The Michaelis-Menten constant (KM) of an enzyme can be determined in an aqueous environment from the initial reaction rate of the enzyme catalyzed reaction, by either calorimetric or electrochemical analysis. The initial reaction rate was determined using both methods, based on the results obtained for different concentrations of methanol and ethanol and various alcohol oxydases (Hansenula sp., Pichia pastoris and Candida boidinii). Using the Hanes method (diagram of the concentration/initial rate as a function of the initial concentration of the substrate in the reaction medium), the KM can be calculated, which corresponds to the origin of the straight line, opposite the abscissa.

[3] = test system: alcohol oxidase (Hansenula sp.); assay: KM by the Hanes method, electrochemistry, alcohol oxidase of Hansenula sp.; assay type: biochemical; conditions: Hansenula sp. enzyme
Description: as §1

[4] = target: T1, alcohol oxidase (Komagataella phaffii, UniProt P04842); assay: Tests to improve the observed signals: effect of SDS on enzyme activity; assay type: biochemical; conditions: SDS 0.1%
T1 construct: purchased Sigma A-2404
T1 sequence (P04842 1-663): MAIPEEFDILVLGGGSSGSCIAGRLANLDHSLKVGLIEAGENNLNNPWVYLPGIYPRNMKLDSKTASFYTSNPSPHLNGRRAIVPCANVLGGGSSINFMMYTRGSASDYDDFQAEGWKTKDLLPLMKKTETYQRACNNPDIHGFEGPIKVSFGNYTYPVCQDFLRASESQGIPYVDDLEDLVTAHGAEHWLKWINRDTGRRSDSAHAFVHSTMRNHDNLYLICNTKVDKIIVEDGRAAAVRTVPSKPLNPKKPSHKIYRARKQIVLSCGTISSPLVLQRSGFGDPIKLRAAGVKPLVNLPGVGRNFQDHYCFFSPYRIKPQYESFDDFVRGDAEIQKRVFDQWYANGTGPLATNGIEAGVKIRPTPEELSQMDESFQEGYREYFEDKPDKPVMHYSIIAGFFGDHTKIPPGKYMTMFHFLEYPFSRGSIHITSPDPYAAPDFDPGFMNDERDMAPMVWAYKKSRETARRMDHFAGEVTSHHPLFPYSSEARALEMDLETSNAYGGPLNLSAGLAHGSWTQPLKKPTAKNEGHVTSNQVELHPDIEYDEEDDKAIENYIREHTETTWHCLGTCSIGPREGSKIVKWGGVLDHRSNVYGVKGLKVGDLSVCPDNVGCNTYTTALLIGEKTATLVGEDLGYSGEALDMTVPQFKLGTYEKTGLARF
Description: Tests aiming to improve the observed signals were carried out. Low concentrations of SDS (0.1%) allow for a uniform deposit of a sample on the surface of the working electrode, while simultaneously increasing the enzyme activity by a factor of 110%.

Chain of alcohol oxidase (Candida boidini) (Q00922 2-663 limits assumed): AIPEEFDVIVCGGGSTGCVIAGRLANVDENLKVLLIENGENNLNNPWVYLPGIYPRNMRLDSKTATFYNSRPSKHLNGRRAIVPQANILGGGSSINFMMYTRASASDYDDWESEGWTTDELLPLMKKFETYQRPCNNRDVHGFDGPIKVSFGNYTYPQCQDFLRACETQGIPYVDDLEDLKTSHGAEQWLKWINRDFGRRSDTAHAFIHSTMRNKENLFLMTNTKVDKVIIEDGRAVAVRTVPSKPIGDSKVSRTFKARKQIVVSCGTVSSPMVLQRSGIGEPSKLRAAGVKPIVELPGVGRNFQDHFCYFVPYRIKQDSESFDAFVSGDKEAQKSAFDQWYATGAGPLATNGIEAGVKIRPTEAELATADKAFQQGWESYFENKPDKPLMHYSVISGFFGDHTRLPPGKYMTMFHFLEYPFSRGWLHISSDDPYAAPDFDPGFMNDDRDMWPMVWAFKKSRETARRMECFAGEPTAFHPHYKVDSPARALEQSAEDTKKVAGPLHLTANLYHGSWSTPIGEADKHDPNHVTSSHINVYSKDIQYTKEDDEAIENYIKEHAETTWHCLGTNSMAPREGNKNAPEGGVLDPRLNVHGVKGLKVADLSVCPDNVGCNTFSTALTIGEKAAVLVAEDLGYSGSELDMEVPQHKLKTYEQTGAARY

Q: With `CCO` [EtOH, ethanol] as the compound, how does the Km ([1]; read-out: KM EtOH, [EtOH] 0.25-1.25 mM) read?
A: 8410 µM

Q: And the Km ([2]; read-out: KM EtOH, [EtOH] 0.05-3.3 mM, colorimetry)?
A: 3460 µM

Q: And the Km ([2]; read-out: KM EtOH, [EtOH] 0.25-5.0 mM, electrochemistry)?
A: 2610 µM

Q: And the Km ([2]; read-out: KM EtOH, [EtOH] 2.5-10.0 mM, electrochemistry)?
A: 2910 µM

Q: What about the Km ([3]; [EtOH] 0.25-5.0 mM, read-out: KM EtOH) of the same compound?
A: 6000 µM

Q: What does the source list for `CO` [MeOH, methanol]?
A: Km ([1]; read-out: KM MeOH, [MeOH] 0.05-0.5 mM): 290 µM; Km ([2]; read-out: KM MeOH, [MeOH] 0.02-2.5 mM, colorimetry): 640 µM; Km ([2]; read-out: KM MeOH, [MeOH] 0.05-2.5 mM, electrochemistry): 310 µM; Km ([2]; read-out: KM MeOH, [MeOH] 0.125-1.0 mM, electrochemistry): 560 µM; Km ([3]; [MeOH] 0.05-2.5 mM, read-out: KM MeOH): 390 µM

Q: For `CCCCCCCCCCCCOS(=O)(=O)[O-].[Na+]` [SDS], which “increasing the enzyme activity by a factor of” value [4] is on record?
A: 110%
